The target in the assay is T1, human non-pancreatic sPLA2 (type IIa) (Homo sapiens, UniProt P14555).
T1 construct: Garvan Institute for Medical Research (provided, not a commercial vendor)
T1 sequence (P14555 21-144): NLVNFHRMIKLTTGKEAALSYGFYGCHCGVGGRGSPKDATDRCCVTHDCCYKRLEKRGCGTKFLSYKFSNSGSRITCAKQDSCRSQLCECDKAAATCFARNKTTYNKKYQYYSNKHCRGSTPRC
The experiment in a line: Assay for inhibition of human non-pancreatic sPLA2 (type IIa), mixed micelle colorimetric assay. The settings on record: recombinant hIIa-PLA2; substrate diheptanoyl thio-phosphatidyl choline, DTNB detection; IC50 from Dixon plot extrapolation; read-out: IC50, inhibition of human secretary PLA2. In kind it is biochemical. The source says: Assay for Inhibition of Human Non-Pancreatic sPLA2 (type IIa)
A mixed nucelle colorimetric assay utilising a microtitreplate reader was used as described by Reynolds, L. J.; Hughes, L. L.; Dennis, E. A. “Analysis of human synovial fluid phospholipase A2 on short chain phosphatidylcholine-mixed micelles: Development of a spectrophotometric assay suitable for a microplate reader”. Anal Biochem. 1992, 204, 190-197.
Reagents were obtained commercially in the sPhospholipase A2 Assay Kit, Cayman Chemical Company MI USA. Buffer (25 mM Tris HCl at pH 7.5, 1 mg/mL BSA, 0.3 mM Triton X-100, 100 mM KCl, 10 mM CaCl2), substrate (diheptanoyl thio-phosphatidyl choline), DTNB (5,5′-dithiobis(2-nitrobenzoic acid)) and a 96 well plate were all provided. Recombinant hIIa-PLA2 was provided by the Garvan Institute for Medical Research. […] Standard inhibitor solutions were prepared from anhydrous DMSO. All samples were run in triplicate including the blank and control samples. Data was collected on a Molecular Devices Spectramax 250 Microplate Spectrophotometer using Softmax Pro Microplate Analysis Software v2.21. […] Thio-PC is processed by s-PLA2 and the free thiol produced is detected with DTNB (Ellman's Reagent). 5-Thio-2-nitrobenzoic acid is detected spectrophotometrically at […]. IC50's were determined by assaying inhibitors at a range of concentrations.
By IC50 is commonly meant the concentration needed to halve the response being measured. As to `O=C(O)CC[C@@H](Cc1cn(Cc2ccccc2)c2ccccc12)NC(=O)CCCCCCc1ccccc1` [Compound 19, (S)-5-(1-Benzyl-1H-indol-3-yl)-4-(7-phenyl-heptanoylamino)-pentanoic acid], the IC50 is 5700 nM. The same measure for `O=C(CCCCCCc1ccccc1)N[C@@H](COP(=O)(O)CCCOc1ccccc1)Cc1ccc(OCc2ccccc2)cc1` [Compound 57, (R)-(3-Phenoxy-propyl)-phosphonic acid mono-[3-(4-benzyloxy-phenyl)-2-(7-phenyl-heptanoylamino)-propyl]ester]: 656 nM; for `O=C(O)CCC(Cc1ccc(OCc2ccccc2)cc1)NC(=O)CCCCCc1ccccc1` (racemic) [Compound 86, (RS)-5-(4-Benzyloxy-phenyl)-4-(6-phenyl-hexanoylamino)-pentanoic acid]: 383 nM; for `O=C(O)CCC(Cc1ccc(OCc2cccnc2)cc1)NC(=O)CCCCCCc1ccccc1` (racemic) [Compound 96, (RS)-4-(7-Phenyl-heptanoylamino)-5-[4-(pyridin-3-ylmethoxy)-phenyl]-pentanoic acid]: 454 nM. The same measure for `O=C(O)CCC(Cc1ccc(OCc2ccccc2)cc1)NC(=O)CCCCCCc1cccnc1` (racemic) [Compound 91, (RS)-5-(4-Benzyloxy-phenyl)-4-(7-pyridin-3-yl-heptanoylamino)-pentanoic acid]: 1520 nM; for `O=C(O)CCC(Cc1ccc(OCc2ccccc2)cc1)NC(=O)CCCCCCc1cccc([N+](=O)[O-])c1` (racemic) [Compound 90, (RS)-5-(4-Benzyloxy-phenyl)-4-[7-(3-nitro-phenyl)-heptanoylamino]-pentanoic acid]: 1070 nM. The same measure for `COc1ccccc1CCCCCCC(=O)NC(CCC(=O)O)Cc1ccc(OCc2ccccc2)cc1` (racemic) [Compound 88, (RS)-5-(4-Benzyloxy-phenyl)-4-[7-(2-methoxy-phenyl)-heptanoylamino]-pentanoic acid]: 7400 nM; for `O=C(CCCCCCc1ccccc1)NC(COP(=O)(O)CCCO)Cc1ccc(OCc2ccccc2)cc1` (centres unmarked) [Compound 62, (3-Hydroxy-propyl)-phosphonic acid mono-[3-(4-benzyloxy-phenyl)-2-(7-phenyl-heptanoylamino)-propyl]ester]: 24 nM. `O=C(O)CC[C@@H](Cc1cn(CCCc2ccccc2)c2ccccc12)NC(=O)CCCCCCc1ccccc1` [Compound 20, (S)-4-(7-Phenyl-heptanoylamino)-5-[1-(3-phenyl-propyl)-1H-indol-3-yl]-pentanoic acid]: the IC50 is 2900 nM. The same measure for `O=C(O)CC[C@@H](CCc1ccc(Oc2ccccc2)cc1)NC(=O)CCCCCCc1cccnc1` [Compound 107, 6-(4-Phenoxy-phenyl)-4R-(7-pyridin-3-yl-heptanoylamino)-hexanoic acid]: 1700 nM; for `O=C(O)CC[C@@H](CCc1ccc(Oc2ccccc2)cc1)NC(=O)CCCCCCc1ccccc1` [Compound 106, 6-(4Phenoxy-phenyl)-4R-(7-phenyl-heptanoylamino)-hexanoic acid]: 99 nM. The same measure for `CC(=O)Nc1cccc(CCCCCCC(=O)NC(CCC(=O)O)Cc2ccc(OCc3ccccc3)cc2)c1` (racemic) [Compound 89, (RS)-4-[7-(3-Acetylamino-phenyl)-heptanoylamino]-5-(4-benzyloxy-phenyl)-pentanoic acid]: 8100 nM; for `O=C(O)CCC(CCc1ccccc1)NC(=O)CCCCCCc1ccccc1` (racemic) [Compound 102, (RS)-6-Phenyl-4-(7-phenyl-heptanoylamino)-hexanoic acid]: 1500 nM; for `O=C(O)CCC(Cc1ccc(OCc2ccccn2)cc1)NC(=O)CCCCCCc1ccccc1` (racemic) [Compound 95, (RS)-4-(7-Phenyl-heptanoylamino)-5-[4-(pyridin-2-ylmethoxy)-phenyl]-pentanoic acid]: 428 nM. To `O=C(O)CCC(Cc1ccc(OCc2ccccc2)cc1)NC(=O)CCCCCCCc1ccccc1` (racemic) [Compound 87, (RS)-5-(4-Benzyloxy-phenyl)-4-(8-phenyl-octanoylamino)-pentanoic acid] belongs 435 nM. `O=C(CCCCCCc1ccccc1)N[C@@H](CCc1nnn[nH]1)Cc1ccc(OCc2ccccc2)cc1` [Compound 66, (S)-7-Phenyl-heptanoic acid [1-(4-benzyloxy-benzyl)-3-(1H-tetrazol-5-yl)-propyl]-amide]: the IC50 was 356 nM. To `O=C(O)CCC(Cc1cn(CCCc2ccccc2)cn1)NC(=O)CCCCCCc1ccccc1` (centres unmarked) [Compound 32, 4-(7-Phenyl-heptanoylamino)-5-[1-(3-phenyl-propyl)-1H-imidazol-4-yl]-pentanoic acid] belongs 2500 nM.

The values above are taken from patent US7253194B2, “Compounds and inhibitors of phospholipases” (The University of Queensland, priority 2000, dated 2007).
